Measured values as given in ChEMBL document CHEMBL6092203, “Discovery of Novel PROTAC-Based HPK1 Degraders with High Potency and Selectivity for Cancer Immunotherapy” (J Med Chem, 2024).

Key:
[1] = Tmax in female Sprague-Dawley rat at 2 mg/kg/day, po measured at day 1; assay type: ADME, organism-based; conditions: in vivo, time 1 day
MC-38 [2] = experiment: Synergistic antitumor activity against mouse MC38 cells implanted in C57BL/6J mouse assessed as tumor growth inhibition at 100 mg/kg, po QD measured after 4 weeks in presence of 5 mg/kg anti-PD1 and measured twice a week; assay type: functional; conditions: MC-38, 672 h, read-out: TGI
MC-38 [3] = experiment: Synergistic antitumor activity against mouse MC38 cells implanted in C57BL/6J mouse assessed as reduction in tumor volume at 1 mg/kg, po bid administered for 3 to 4 weeks in presence of 5 mg/kg anti-PD1 and measured twice a week (reference value: 1549.22 +/- 217.92 mm3); assay type: functional; conditions: time 3-4 weeks
[4] = Induction of IL-2 secretion in human PBMCs incubated for 24 hrs by ELISA; assay type: functional, cell-based, PBMC
[5] = Metabolic stability in rat hepatocytes assessed as intrinsic clearance at 1 uM incubated for 90 mins by LC-MS/MS method; assay type: ADME, cell-based, Hepatocyte; conditions: 1.5 h
MC-38 [6] = experiment: Antitumor activity against mouse MC38 cells implanted in C57BL/6J mouse assessed as reduction in tumor weight at 1 mg/kg, po BID administered for 3 to 4 weeks (reference value: 1.79 +/- 0.24 g); assay type: functional; conditions: time 3-4 weeks
MC-38 [7] = experiment: Synergistic antitumor activity against mouse MC38 cells implanted in C57BL/6J mouse assessed as reduction in tumor volume at 0.1 mg/kg, po bid administered for 3 to 4 weeks in presence of 5 mg/kg anti-PD1 and measured twice a week (reference value: 1549.22 +/- 217.92 mm3); assay type: functional; conditions: time 3-4 weeks
[8] = Metabolic stability in dog liver microsomes assessed as intrinsic clearance at 1 uM incubated for 45 mins by LC-MS/MS method; assay type: ADME, Canis lupus familiaris, Microsome; conditions: read-out: CLH
in vitro [9] = conditions: rhesus monkey, liver microsomes
[10] = Drug metabolism in monkey hepatocytes assessed as phase 1 metabolites formation at 10 uM incubated for 120 mins by UHPLC-UV/MS/MS method; assay type: ADME, cell-based, Macaca mulatta, Hepatocyte; conditions: rhesus monkey, 2 h
[11] = Drug metabolism in mouse hepatocytes assessed as phase 2 metabolites formation at 10 uM incubated for 120 mins by UHPLC-UV/MS/MS method; assay type: ADME, cell-based, Hepatocyte; conditions: 2 h
MC-38 [12] = experiment: Antitumor activity against mouse MC38 cells implanted in C57BL/6J mouse assessed as reduction in tumor volume at 1 mg/kg, po BID administered for 3 to 4 weeks (reference value: 1549.22 +/- 217.92 mm3); assay type: functional; conditions: time 3-4 weeks
[13] = AUCinfinity in C57BL/6J mouse at 2 mg/kg, iv measured upto 24 hrs by LC-MS analysis; assay type: ADME, organism-based; conditions: in vivo
in vitro [14] = conditions: rat, hepatocytes
MC-38 [15] = experiment: Synergistic antitumor activity against mouse MC38 cells implanted in C57BL/6J mouse assessed as tumor weight inhibition rate at 1 mg/kg, po bid measured after 4 weeks in presence of 5 mg/kg anti-PD1 and measured twice a week; assay type: functional; parameters: scale not given: the % may be the effect or the level left
Cytochrome P450 2D6 = Cytochrome P450 2D6 (Homo sapiens, UniProt P10635); experiment: Inhibition of CYP2D6 in human liver microsomes using dextromethorphan as substrate in presence of NADPH; assay type: ADME, Microsome
Sequence of Cytochrome P450 2D6 (P10635 whole entry): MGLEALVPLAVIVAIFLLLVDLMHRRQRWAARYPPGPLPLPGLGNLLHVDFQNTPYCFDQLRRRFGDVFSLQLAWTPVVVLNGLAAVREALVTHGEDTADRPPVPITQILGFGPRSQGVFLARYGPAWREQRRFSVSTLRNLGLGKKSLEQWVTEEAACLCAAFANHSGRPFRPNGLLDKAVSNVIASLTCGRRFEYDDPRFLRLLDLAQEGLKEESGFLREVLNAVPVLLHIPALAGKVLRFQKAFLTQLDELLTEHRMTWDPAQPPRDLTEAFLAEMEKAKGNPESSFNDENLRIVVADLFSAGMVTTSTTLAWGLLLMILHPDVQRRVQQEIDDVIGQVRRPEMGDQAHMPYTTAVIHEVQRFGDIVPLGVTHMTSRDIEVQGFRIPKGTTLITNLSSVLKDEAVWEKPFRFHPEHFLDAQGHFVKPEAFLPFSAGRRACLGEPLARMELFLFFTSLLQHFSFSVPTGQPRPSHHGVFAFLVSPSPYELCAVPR

[16] = Drug distribution in rat thyroid gland measured after 0.5 to 6 hrs; assay type: ADME, tissue-based; conditions: in vivo, time 0.5-6 hrs
[17] = Metabolic stability in human hepatocytes assessed as intrinsic clearance at 1 uM incubated for 90 mins by LC-MS/MS method; assay type: ADME, cell-based, Hepatocyte; conditions: 1.5 h
[18] = Toxicity in C57BL/6J mouse assessed as body weight loss at 0.1 to 0.5 mg/kg, po bid administered for 3 to 4 weeks; assay type: organism-based; conditions: in vivo, dose lower 0.1 mg/kg, time lower 3 weeks, dose upper 0.5 mg/kg, time upper 4 weeks
MC-38 [19] = experiment: Synergistic antitumor activity against mouse MC38 cells implanted in C57BL/6J mouse assessed as reduction in tumor weight at 0.1 mg/kg, po bid administered for 3 to 4 weeks in presence of 5 mg/kg anti-PD1 and measured twice a week (reference value: 1.79 +/- 0.24 g); assay type: functional; conditions: time 3-4 weeks
[20] = AUC(0 to 24 hrs) in female Sprague-Dawley rat at 30 mg/kg/day, po measured at day 1; assay type: ADME, organism-based; conditions: in vivo, time 1 day
[21] = Half-life in Sprague-Dawley rat at 1 mg/kg, po measured upto 24 hrs by LC-MS analysis; conditions: in vivo
MC-38 [22] = experiment: Synergistic antitumor activity against mouse MC38 cells implanted in C57BL/6J mouse assessed as tumor weight inhibition rate at 100 mg/kg, po QD measured after 4 weeks in presence of 5 mg/kg anti-PD1 and measured twice a week; assay type: functional; parameters: scale not given: the % may be the effect or the level left
in vivo [23] = conditions: male, Sprague-Dawley, rat, po, 2 mg/kg
in vitro [24] = conditions: human, hepatocytes
in vivo [25] = conditions: female, Sprague-Dawley, rat, po, 100 mg/kg
[26] = Drug distribution in rat kidney measured after 0.5 to 6 hrs; assay type: ADME, tissue-based; conditions: in vivo, time 0.5-6 hrs
[27] = Plasma protein binding in human at 10 uM incubated for 6 hrs by equilibrium dialysis based LC-MS/MS method; assay type: ADME, cell-free; conditions: read-out: PPB
in vitro [28] = conditions: rat, liver microsomes
MC-38 [29] = experiment: Synergistic antitumor activity against mouse MC38 cells implanted in C57BL/6J mouse assessed as reduction in tumor weight at 100 mg/kg, po QD administered for 3 to 4 weeks in presence of 5 mg/kg anti-PD1 and measured twice a week (reference value: 1.79 +/- 0.24 g); assay type: functional; conditions: time 3-4 weeks
[30] = Metabolic stability in dog hepatocytes assessed as intrinsic clearance at 1 uM incubated for 90 mins by LC-MS/MS method; assay type: ADME, cell-based, Canis lupus familiaris, Hepatocyte; conditions: 1.5 h
in vivo [31] = conditions: male, Sprague-Dawley, rat, po, 100 mg/kg
in vivo [32] = conditions: beagle, dog, po, 5 mg/kg
Description: Oral bioavailability in Beagle dog at 5 mg/kg measured upto 24 hrs by LC-MS analysis

[33] = Induction of p-SLP76 at Ser376 protein degradation in human Jurkat cells incubated for 24 hrs by Western blotting analysis; assay type: cell-based
[34] = Drug distribution in rat lung measured after 0.5 to 6 hrs; assay type: ADME, tissue-based; conditions: in vivo, time 0.5-6 hrs
MC-38 [35] = experiment: Antitumor activity against mouse MC38 cells implanted in C57BL/6J mouse assessed as reduction in tumor volume at 0.1 mg/kg, po BID administered for 3 to 4 weeks (reference value: 1549.22 +/- 217.92 mm3); assay type: functional; conditions: time 3-4 weeks
[36] = Drug metabolism in dog hepatocytes assessed as phase 1 metabolites formation at 10 uM incubated for 120 mins by UHPLC-UV/MS/MS method; assay type: ADME, cell-based, Canis lupus familiaris, Hepatocyte; conditions: 2 h
in vitro [37] = conditions: rhesus monkey, hepatocytes
[38] = molecular target: Protein cereblon/Mitogen-activated protein kinase kinase kinase kinase 1 (Homo sapiens, UniProt Q92918+Q96SW2); experiment: PROTAC activity at CRBN/HPK1 in human Jurkat cells assessed as maximum degradation incubated for 24 hrs by Western blotting analysis; assay type: cell-based
Sequence of Protein cereblon/Mitogen-activated protein kinase kinase kinase kinase 1 (Q92918 whole entry, looked up): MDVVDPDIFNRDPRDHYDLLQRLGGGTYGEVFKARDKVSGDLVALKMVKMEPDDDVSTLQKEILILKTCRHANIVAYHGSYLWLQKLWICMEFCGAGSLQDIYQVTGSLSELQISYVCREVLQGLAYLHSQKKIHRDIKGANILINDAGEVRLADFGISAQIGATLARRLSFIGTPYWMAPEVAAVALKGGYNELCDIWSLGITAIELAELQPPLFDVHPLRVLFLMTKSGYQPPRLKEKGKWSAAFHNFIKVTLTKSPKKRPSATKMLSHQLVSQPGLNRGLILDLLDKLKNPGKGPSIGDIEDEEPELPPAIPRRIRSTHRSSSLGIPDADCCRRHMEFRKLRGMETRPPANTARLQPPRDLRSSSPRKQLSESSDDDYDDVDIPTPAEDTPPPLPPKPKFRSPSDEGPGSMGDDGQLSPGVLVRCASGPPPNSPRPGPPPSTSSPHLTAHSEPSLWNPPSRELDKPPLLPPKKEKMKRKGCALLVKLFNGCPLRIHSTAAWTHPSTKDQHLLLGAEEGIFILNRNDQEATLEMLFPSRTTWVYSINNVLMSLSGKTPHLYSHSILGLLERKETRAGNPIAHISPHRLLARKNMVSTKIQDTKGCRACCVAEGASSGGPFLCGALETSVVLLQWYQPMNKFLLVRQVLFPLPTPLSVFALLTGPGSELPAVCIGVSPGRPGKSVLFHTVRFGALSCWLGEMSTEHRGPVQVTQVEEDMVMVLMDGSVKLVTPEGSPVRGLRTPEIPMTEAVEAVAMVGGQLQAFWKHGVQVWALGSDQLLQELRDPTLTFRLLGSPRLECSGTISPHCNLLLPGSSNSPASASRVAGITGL
Sequence of Protein cereblon/Mitogen-activated protein kinase kinase kinase kinase 1 (Q96SW2 whole entry, looked up): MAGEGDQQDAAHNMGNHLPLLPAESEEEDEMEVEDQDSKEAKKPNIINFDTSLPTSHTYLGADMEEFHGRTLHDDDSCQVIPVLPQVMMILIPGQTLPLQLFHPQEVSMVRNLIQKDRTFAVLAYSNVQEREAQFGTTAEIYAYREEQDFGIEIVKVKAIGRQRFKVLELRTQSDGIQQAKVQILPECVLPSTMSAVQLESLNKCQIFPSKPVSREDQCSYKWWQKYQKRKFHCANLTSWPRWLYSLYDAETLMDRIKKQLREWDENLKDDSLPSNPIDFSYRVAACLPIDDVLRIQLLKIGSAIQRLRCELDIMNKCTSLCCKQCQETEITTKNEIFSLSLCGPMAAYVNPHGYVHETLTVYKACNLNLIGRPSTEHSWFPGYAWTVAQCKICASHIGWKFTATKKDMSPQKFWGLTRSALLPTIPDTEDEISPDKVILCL

## O=C1CCN(c2cc(C(=O)N3CCC(CC4CCN(c5ccc(-c6cnc7[nH]cc(-c8cnn(CC(F)(F)F)c8)c7n6)cn5)CC4)CC3)ccc2Cl)C(=O)N1
[1]
  Tmax: 6 h
MC-38 [2]
  inhibition in vivo at 100 mg/kg: 91%
MC-38 [3]
  Activity: 338.13 mm3
[4]
  Emax: 1151.57 pg/mL
[5]
  CLH: 2.97 µL/min/mg
MC-38 [6]
  Activity: 1.56 g
MC-38 [7]
  Activity: 934.84 mm3
[8]
  microsomal CLint at 1 µM: 20.3 µL/min/mg
In vitro [9]
  half-life at 0.75 h, 1 µM: 0.607 h
[10]
  Drug metabolism: metabolite_detected
[11]
  Drug metabolism: metabolite_detected
MC-38 [12]
  Activity: 1277.79 mm3
[13]
  AUC(0-inf): 5560 ng·h/mL
In vitro [14]
  half-life at 1.5 h, 1 µM: 3.9 h
MC-38 [15]
  Activity: 76.61%
Cytochrome P450 2D6
  IC50: > 10000 nM
[16]
  Drug uptake: Active
[17]
  CLH: 1.92 µL/min/mg
[18]
  Activity: Non-toxic
MC-38 [19]
  Activity: 1.17 g
[20]
  AUC(0-t) at 24 h: 51300 ng·h/mL
[21]
  half-life at 24 h: 5.15 h
MC-38 [22]
  Activity: 83.04%
In vivo [23]
  Cmax at 336 h: 64.2 ng/mL
In vitro [24]
  half-life at 1.5 h, 1 µM: 6.02 h
In vivo [25]
  Cmax at 336 h: 8590 ng/mL
[26]
  Drug uptake: Active
[27]
  fraction unbound at 6 h, 10 µM: 0.001
In vitro [28]
  half-life at 0.75 h, 1 µM: 4.12 h
MC-38 [29]
  Activity: 0.3 g
[30]
  CLH: 3.33 µL/min/mg
In vivo [31]
  Cmax at 24 h: 8620 ng/mL
In vivo [32]
  bioavailability at 24 h: 16%
[33]
  DC50: 5.63 nM
[34]
  Drug uptake: Active
MC-38 [35]
  Activity: 1107.91 mm3
[36]
  Drug metabolism: metabolite_detected
In vitro [37]
  half-life at 1.5 h, 1 µM: 1.3 h
[38]
  Emax: 94%
